Data from patent US20100160255A1, “SPIRO-CYCLIC COMPOUND” (Takeda Pharmaceutical Company Limited, priority 2005, published 2010).
Where two headings read alike, the source gives them in different places.

Legend:
[1] = target: T1, human ACC1 (Homo sapiens, UniProt Q13085); test: ACC1 inhibitory activity (malachite green absorbance assay, recombinant enzyme); type: biochemical
T1 construct: made in house; host or cells: SF-9 insect cells, recombinant baculovirus BAC-ACC1
Method: The ACC1 inhibitory activity of the compound of the present invention was evaluated by the following method.
(§1) Human ACC1 gene was cloned by PCR using human liver cDNA library (Clontech) as a template, and Primer 1 and Primer 2 shown below. Primer 1 and Primer 2 were prepared by adding recognition sequence of restriction enzymes SalI and NotI based on the information of the base sequence (Genbank Accession U19822) of human ACC1 gene.
(§2) PCR was performed using Pyrobest DNA polymerase (TAKARA BIO INC.). The obtained PCR product was cloned to pT7 Blue vector (Novagen) which was, after confirmation of the base sequence, digested with restriction enzymes SalI and NotI. The obtained DNA fragment was inserted into pFAST-BacHTc (Invitrogen) digested with restriction enzymes SalI and NotI to give expression plasmid ACC1/pFAST-BacHTc.
Using the expression plasmid and BAC-TO-BAC Baculovirus Expression System (Invitrogen), virus stock BAC-ACC1 of recombinant Baculovirus was prepared.
(§3) SF-9 cells (Invitrogen) were sown at 1×10^6 cells/mL to insect cell culture medium (1 L, Sf-900II SFM medium (Invitrogen) containing 10% fetal bovine serum (Trace), 50 mg/L gentamicin (Invitrogen) and 0.1% Pluronic F-68 (Invitrogen)), and shaking culture was performed using a 2 L volume Erlenmeyer flask at 27° C., 100 rpm.
After culturing for 24 hr, the recombinant Baculovirus BAC-ACC1 (10 mL) was added, and the mixture was further cultured for 3 days. The culture medium was centrifuged at 1000×g for 5 min to give virus-infected cells. The infected cells were washed with phosphate buffered saline (Invitrogen) and centrifuged under the same conditions, and the obtained cells were cryopreserved at −80° C.
The cryopreserved cells were thawed in ice, suspended in 25 mM HEPES buffer (100 mL, pH 7.5) containing 10% Glycerol, 0.13 M NaCl, 1 mM EDTA, 25 mM sodium β-glycerophosphate, 1 mM sodium orthovanadate, added with Complete Protease Inhibitor (Boehringer). The obtained suspension was homogenized 3 times with a Polytron homogenizer (Kinematica) at 20,000 rpm for 30 seconds. The obtained cell disrupt solution was clarified by centrifugation at 185700×g for 50 min and filtrated using a 0.45 μm filter. The filtrate was passed through a column packed with Ni-NTA Super Flow Gel (QIAGEN, 12 mL) at a flow rate of about 5 mL/min. The column was washed with buffer A (50 mM HEPES containing 0.3M NaCl, pH 7.5), further washed with buffer A containing 20 mM Imidazole, and eluted with buffer A containing 100 mM Imidazole. The eluate was concentrated with Vivaspin 20 (Vivascience) having a molecular weight cut off of 30 K. The obtained concentrate was dialyzed using Sephadex G-25 (Amersham Bioscience K.K., 358 mL) equilibrated with 50 mM HEPES (pH7.5) containing 10 mM MgCl2, 2 mM dithiothreitol, 10 mM tripotassium citrate and 0.3M NaCl. The dialysate was concentrated with Vivaspin 20 (Vivascience) having a molecular weight cut off of 30 K and the concentrate was filtered through a 0.22 μm filter to give ACC1. The obtained ACC1 was cryopreserved at −80° C.
ACC1 (0.93 mg/ml) obtained in (2) above was diluted to a concentration of 8 μg/ml with an enzyme reaction buffer (50 mM HEPES (pH7.5), 10 mM MgCl2, 10 mM tripotassium citrate, 2 mM dithiothreitol, 0.75 mg/ml fatty acid free BSA), and added to each well of a 384 well assay plate (Nunc 265196) by 10 μl. […]

[2] = target: T2, human ACC2 (Homo sapiens, UniProt O00763); test: ACC2 inhibitory activity (malachite green absorbance assay, recombinant ACC2(Nd)); type: biochemical
T2 construct: made in house; host or cells: SF-9 insect cells, recombinant baculovirus BAC-ACC2(Nd)
Method: The ACC2 inhibitory activity of the compound of the present invention was evaluated by the following method.
as §1, with “ACC2” for “ACC1”, “skeletal muscle” for “liver”, “XbaI” for “NotI”, “U89344)” for “U19822)”
as §2, with “XbaI.” for “NotI.”, “pFAST-BacHTa” for “pFAST-BacHTc”, “XbaI” for “NotI”, “ACC2/pFAST-BacHTa.” for “ACC1/pFAST-BacHTc.”
A plasmid for expression of ACC2 free of mitochondrial targeting sequence was prepared by PCR using the expression plasmid as a template, and Primer 3 and Primer 4 shown below.
as §2, with “AflII.” for “NotI.”, “pFAST-BacHTa” for “pFAST-BacHTc”, “AflII” for “NotI”, “ACC2mito7/pFAST-BacHTa.” for “ACC1/pFAST-BacHTc.”
Using the expression plasmid and BAC-TO-BAC Baculovirus Expression System (Invitrogen), virus stock BAC-ACC2 of recombinant Baculovirus (N terminal deletion (hereinafter Nd)) was prepared.
as §3, with “0.5×10^6” for “1×10^6”, “(2” for “(1”, “Wave Bioreactor (Wave) under the conditions of” for “2 L volume Erlenmeyer flask at”, “20 rpm, rocking angle of 6° and oxygen concentration of 30%.” for “100 rpm.”
On day 4 of the culture, 3 L of an insect cell culture medium was added, the rocking angle was set to 8°, and the cells were further cultured. On day 5 of the culture, the recombinant Baculovirus BAC-ACC2(Nd) (100 mL) was added, 5 L of the insect cell culture medium was further added, the rocking angle was set to 11°, and the cells were cultured for 3 days. The culture medium was centrifuged at 1000×g for 10 min to give virus-infected cells. The infected cells were washed with phosphate buffered saline (Invitrogen) and centrifuged under the same conditions, and the obtained cells were cryopreserved at −80° C.
The cryopreserved cells were thawed in ice, suspended in 25 mM HEPES buffer (900 mL, pH 7.5) containing 10% Glycerol, 0.13 M NaCl, 1 mM EDTA, 25 mM sodium β-glycerophosphate, 1 mM sodium orthovanadate, added with Complete Protease Inhibitor (Boehringer). The obtained suspension was homogenized 3 times with a Polytron homogenizer (Kinematica) at 20,000 rpm for 30 seconds. The obtained cell disrupt solution was clarified by centrifugation at 31000×g for 60 min and filtrated using a 0.45 μm filter. The filtrate was passed through a column packed with Ni-NTA Super Flow Gel (QIAGEN, 60 mL) at a flow rate of about 5 mL/min. The column was washed with buffer A (50 mM HEPES containing 0.3M NaCl, pH 7.5), further washed with buffer A containing 20 mM Imidazole, and eluted with buffer A containing 100 mM Imidazole. The eluate was concentrated with Vivaspin 20 (Vivascience) having a molecular weight cut off of 30 K. The obtained concentrate was dialyzed against 50 mM HEPES (pH7.5) containing 10 mM MgCl2, 2 mM dithiothreitol, 10 mM tripotassium citrate and 0.3M NaCl. The dialysate was filtered through a 0.22 μm filter to give ACC2(Nd). The obtained ACC2(Nd) was cryopreserved at −80° C. […]

[3] = Table 8, recombinant human ACC1, 30° C., absorbance 620 nm, read-out: IC50 (ACC1 inhibitory activity)
[4] = Table 9, recombinant human ACC2(Nd), N terminal deletion, 30° C., absorbance 620 nm, read-out: IC50 (ACC2 inhibitory activity)
[5] = Experimental Example 3, same manner as Experimental Example 1, read-out: IC50 values (ACC1 inhibitory activity)
[6] = Experimental Example 4, same manner as Experimental Example 2, read-out: IC50 values (ACC2 inhibitory activity)

T2 sequence (O00763 117-2458 limits assumed): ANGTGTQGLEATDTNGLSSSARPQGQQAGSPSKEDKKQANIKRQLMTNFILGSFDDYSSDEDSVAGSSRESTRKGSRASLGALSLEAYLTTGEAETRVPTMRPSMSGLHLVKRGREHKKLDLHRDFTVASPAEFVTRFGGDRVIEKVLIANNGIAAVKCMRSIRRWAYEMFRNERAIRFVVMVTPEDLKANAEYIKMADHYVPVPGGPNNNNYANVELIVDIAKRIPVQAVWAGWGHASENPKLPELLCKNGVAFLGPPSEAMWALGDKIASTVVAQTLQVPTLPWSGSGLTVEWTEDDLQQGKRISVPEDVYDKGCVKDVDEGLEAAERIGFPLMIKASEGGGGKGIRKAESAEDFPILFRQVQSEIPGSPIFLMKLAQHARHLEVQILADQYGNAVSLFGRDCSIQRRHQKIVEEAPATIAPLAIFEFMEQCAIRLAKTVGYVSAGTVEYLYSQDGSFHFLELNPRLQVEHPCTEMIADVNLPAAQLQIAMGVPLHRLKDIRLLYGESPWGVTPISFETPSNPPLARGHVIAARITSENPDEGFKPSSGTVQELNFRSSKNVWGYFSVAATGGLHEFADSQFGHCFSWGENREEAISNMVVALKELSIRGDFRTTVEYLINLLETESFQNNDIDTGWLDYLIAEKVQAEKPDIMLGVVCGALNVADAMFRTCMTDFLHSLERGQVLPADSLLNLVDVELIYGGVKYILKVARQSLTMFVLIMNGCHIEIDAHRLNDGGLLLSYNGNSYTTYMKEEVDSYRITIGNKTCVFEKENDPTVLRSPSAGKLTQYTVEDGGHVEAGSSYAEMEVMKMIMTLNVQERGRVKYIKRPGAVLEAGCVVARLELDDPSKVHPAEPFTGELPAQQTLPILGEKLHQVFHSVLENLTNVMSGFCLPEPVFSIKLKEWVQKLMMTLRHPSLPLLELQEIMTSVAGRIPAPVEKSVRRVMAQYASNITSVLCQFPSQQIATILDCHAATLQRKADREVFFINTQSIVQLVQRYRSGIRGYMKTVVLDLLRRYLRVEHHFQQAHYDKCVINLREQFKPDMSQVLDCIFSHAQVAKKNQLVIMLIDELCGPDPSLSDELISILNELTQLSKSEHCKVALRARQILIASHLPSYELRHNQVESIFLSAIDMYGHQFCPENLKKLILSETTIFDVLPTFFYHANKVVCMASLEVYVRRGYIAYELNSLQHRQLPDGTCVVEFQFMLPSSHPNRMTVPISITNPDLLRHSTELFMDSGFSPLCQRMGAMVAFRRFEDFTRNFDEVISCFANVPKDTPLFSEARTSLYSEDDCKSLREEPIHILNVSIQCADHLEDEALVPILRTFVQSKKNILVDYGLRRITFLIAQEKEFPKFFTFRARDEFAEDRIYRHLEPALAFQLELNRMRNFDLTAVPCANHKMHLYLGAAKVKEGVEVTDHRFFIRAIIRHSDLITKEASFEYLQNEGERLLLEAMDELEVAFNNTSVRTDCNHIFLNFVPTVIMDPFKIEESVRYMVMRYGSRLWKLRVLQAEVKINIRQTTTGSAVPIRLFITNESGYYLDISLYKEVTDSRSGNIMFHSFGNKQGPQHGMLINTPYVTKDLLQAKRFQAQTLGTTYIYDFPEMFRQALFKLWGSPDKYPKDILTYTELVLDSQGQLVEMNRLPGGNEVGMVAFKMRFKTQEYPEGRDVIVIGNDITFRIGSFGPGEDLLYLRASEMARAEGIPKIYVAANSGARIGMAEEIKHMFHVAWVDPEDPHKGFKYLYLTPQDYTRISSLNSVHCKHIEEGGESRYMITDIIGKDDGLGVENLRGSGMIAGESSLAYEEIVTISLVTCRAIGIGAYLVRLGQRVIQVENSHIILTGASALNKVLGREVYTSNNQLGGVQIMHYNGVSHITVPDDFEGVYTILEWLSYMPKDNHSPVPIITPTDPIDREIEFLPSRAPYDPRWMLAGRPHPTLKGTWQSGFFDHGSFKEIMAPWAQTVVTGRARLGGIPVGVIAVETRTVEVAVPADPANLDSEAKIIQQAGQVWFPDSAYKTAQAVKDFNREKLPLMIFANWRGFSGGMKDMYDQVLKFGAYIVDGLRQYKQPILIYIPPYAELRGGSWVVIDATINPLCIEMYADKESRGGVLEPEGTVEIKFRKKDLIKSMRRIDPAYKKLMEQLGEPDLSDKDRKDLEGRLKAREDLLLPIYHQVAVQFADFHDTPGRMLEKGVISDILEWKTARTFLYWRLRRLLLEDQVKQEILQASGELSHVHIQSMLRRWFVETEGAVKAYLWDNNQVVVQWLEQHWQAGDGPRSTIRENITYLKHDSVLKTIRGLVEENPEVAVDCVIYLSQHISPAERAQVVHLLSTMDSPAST

| Structure (SMILES) | IC50 [1, 3] [nM] | IC50 [2, 4] [nM] | IC50 [1, 5] [nM] | IC50 [2, 6] [nM] |
| --- | --- | --- | --- | --- |
| CCN1CCC2(CCCN(C3CCN(C(=O)c4c5ccccc5cc5ccccc45)CC3)C2)C1=O (stereo not shown) [Example 1, 7-[1-(9-anthrylcarbonyl)piperidin-4-yl]-2-ethyl-2,7-diazaspiro[4.5]decan-1-one] | 1900 | 140 | – | – |
| CC1(C)CC2(CCCN(C3CCN(C(=O)c4cc(-c5cccnc5)nc5ccccc45)CC3)C2)C(=O)O1 (stereo not shown) [Example 92, 3,3-dimethyl-7-{1-[(2-(pyridin-3-yl)quinolin-4-yl)carbonyl]piperidin-4-yl}-2-oxa-7-azaspiro[4.5]decan-1-one] | 4800 | 110 | – | – |
| CC(=O)c1cccc(-c2cc(C(=O)N3CCC(N4CCCC5(C4)CC(C)(C)OC5=O)CC3)cc(-c3cccnc3)c2)c1 (stereo not shown) [Example 133, 7-{1-[(3′-acetyl-5-(pyridin-3-yl)biphenyl-3-yl)carbonyl]piperidin-4-yl]-3,3-dimethyl-2-oxa-7-azaspiro[4.5]decan-1-one] | 3300 | 120 | – | – |
| CC1(C)CC2(CN(C3CCN(C(=O)c4c5ccccc5cc5ccccc45)CC3)CCN2)C(=O)O1 (stereo not shown) [Example 153, 9-[1-(9-anthrylcarbonyl)piperidin-4-yl]-3,3-dimethyl-2-oxa-6,9-diazaspiro[4.5]decan-1-one] | 1600 | 76 | – | – |
| CCNC(=O)Nc1sc(-c2ccccn2)cc1C(=O)N1CCC(N2CCCC3(C2)CC(C)(C)OC3=O)CC1 (stereo not shown) [Example 179, 1-(3-{[4-(3,3-dimethyl-1-oxo-2-oxa-7-azaspiro[4.5]dec-7-yl)piperidin-1-yl]carbonyl}-5-(pyridin-2-yl)-2-thienyl)-3-ethylurea] | 140 | 9 | ≤ 100 | ≤ 10 |
| CCNC(=O)Nc1sc(-c2ccc(C(=O)O)cc2)cc1C(=O)N1CCC(N2CCCC3(C2)CC(C)(C)OC3=O)CC1 (stereo not shown) [Example 190, 4-(4-{[4-(3,3-dimethyl-1-oxo-2-oxa-7-azaspiro[4.5]dec-7-yl)piperidin-1-yl]carbonyl}-5-[(ethylcarbamoyl)amino]-2-thienyl)benzoic acid] | 80 | 9 | ≤ 100 | ≤ 10 |
| CCN1C(=O)OC2(CCCN(C3CCN(C(=O)c4c(NC(N)=O)sc5ccccc45)CC3)C2)C1=O (stereo not shown) [Example 229, 1-(3-{[4-(3-ethyl-2,4-dioxo-1-oxa-3,7-diazaspiro[4.5]dec-7-yl)piperidin-1-yl]carbonyl}-1-benzothien-2-yl)urea] | 290 | 49 | – | – |

More lines, now with the values ahead:

| IC50 [1, 3] [nM] | IC50 [2, 4] [nM] | IC50 [1, 5] [nM] | IC50 [2, 6] [nM] | Structure (SMILES) |
| --- | --- | --- | --- | --- |
| 190 | 41 | – | – | CCNC(=O)Nc1sc2ccccc2c1C(=O)N1CCC(N2CCCC3(C2)OC(=O)N(CC)C3=O)CC1 (racemic) [Example 228, N-ethyl-N′-(3-{[4-(3-ethyl-2,4-dioxo-1-oxa-3,7-diazaspiro[4.5]dec-7-yl)piperidin-1-yl]carbonyl}-1-benzothien-2-yl)urea] |
| 110 | 17 | – | – | CCNC(=O)Nc1sc2ccccc2c1C(=O)N1CCC(N2CCCC3(C2)N=C(C)N(CC)C3=O)CC1 (racemic) [Example 233, 1-ethyl-3-(3-{[4-(3-ethyl-2-methyl-4-oxo-1,3,7-triazaspiro[4.5]dec-1-en-7-yl)piperidin-1-yl]carbonyl}-1-benzothien-2-yl)urea] |
| 350 | 23 | – | – | CCN1C(=O)CC2(CCCN(C3CCN(C(=O)c4c(NC(N)=O)sc5ccccc45)CC3)C2)C1=O (racemic) [Example 240, 1-(3-{[4-(2-ethyl-1,3-dioxo-2,7-diazaspiro[4.5]dec-7-yl)piperidin-1-yl]carbonyl)-1-benzothien-2-yl)urea] |
| 360 | 34 | – | – | CCNC(=O)Nc1sc2ccccc2c1C(=O)N1CCC(N2CCCC3(CCN(CC)C3=O)C2)CC1 (racemic) [Example 321, N-ethyl-N′-(3-{[4-(2-ethyl-1-oxo-2,7-diazaspiro[4.5]dec-7-yl)piperidin-1-yl]carbonyl}-1-benzothien-2-yl)urea] |
| 30 | 5 | ≤ 100 | ≤ 10 | CCNC(=O)Nc1sc2ccccc2c1C(=O)N1CCC(N2CCCC3(C2)CC(C)(C)OC3=O)CC1 (single isomer, unassigned) [Example 319, N-(3-{[4-(3,3-Dimethyl-1-oxo-2-oxa-7-azaspiro[4.5]dec-7-yl)piperidin-1-yl]carbonyl}-1-benzothien-2-yl)-N′-ethylurea] |
| 79 | 8 | ≤ 100 | ≤ 10 | CCNC(=O)Nc1sc2ccccc2c1C(=O)N1CCC(N2CCCC3(C2)CC(C)(C)OC3=O)CC1 (stereo not shown) [Example 36, N-(3-{[4-(3,3-Dimethyl-1-oxo-2-oxa-7-azaspiro[4.5]dec-7-yl)piperidin-1-yl]carbonyl}-1-benzothien-2-yl)-N′-ethylurea] |
